≈ marks a conversion by molar mass, not a printed value.
Key:
human URAT1 = molecular target: T1, human URAT1 (Homo sapiens, UniProt Q96S37); experiment: URAT1 inhibition: 14C-uric acid uptake in MDCK2 cells stably expressing human URAT1; type: cell-based; settings: for IC50: read-out: IC50 (test substance concentration at which URAT1 was inhibited 50%) (converted); for URAT1 inhibition rate (result in words, FIGS. 1 to 4): test substance 1 to 200 μg/mL, uric acid uptake vs DMSO control
T1 construct: expressed in transfected cells
T1 sequence (Q96S37 1-553): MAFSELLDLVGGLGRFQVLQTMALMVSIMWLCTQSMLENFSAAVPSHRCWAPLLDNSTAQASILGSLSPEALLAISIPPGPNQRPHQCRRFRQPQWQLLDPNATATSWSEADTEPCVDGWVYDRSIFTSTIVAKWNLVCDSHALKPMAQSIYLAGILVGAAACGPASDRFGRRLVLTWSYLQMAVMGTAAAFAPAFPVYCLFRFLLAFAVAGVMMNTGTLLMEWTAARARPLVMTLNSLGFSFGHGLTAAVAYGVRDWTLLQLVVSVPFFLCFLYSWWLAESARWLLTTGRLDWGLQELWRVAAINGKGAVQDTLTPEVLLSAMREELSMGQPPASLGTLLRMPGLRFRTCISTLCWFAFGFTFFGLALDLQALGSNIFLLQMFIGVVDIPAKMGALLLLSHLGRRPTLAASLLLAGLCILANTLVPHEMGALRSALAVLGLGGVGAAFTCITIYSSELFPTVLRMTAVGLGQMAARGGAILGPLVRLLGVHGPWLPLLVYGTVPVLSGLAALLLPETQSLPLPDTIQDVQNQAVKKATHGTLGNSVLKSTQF
Procedure: Each test substance was dissolved in dimethyl sulfoxide (DMSO) and added to HBSS to give a test substance concentration of 1, 5, 10, 15, 20, 40, 60, 80, 100, or 200 μg/mL. […] Uric acid was added to HBSS to give a concentration of 20 μM. Subsequently, the cells were washed again with HBSS, and then dissolved in a 0.1 N sodium hydroxide aqueous solution. The radiation dose of 14 C in the solution was measured by a liquid scintillation counter, and the uptake amount of uric acid into the cells was measured. A positive control was provided by adding benzbromarone at 30 μM. A test substance non-addition group as a control was provided by adding only DMSO to HBSS (DMSO concentration: 1%). The tests were performed with n=3 for the control and for the test substances at each concentration. […] The uptake amount of uric acid was determined with an average of n=3. The calculation formula of the URAT1 inhibition rate (%) is as follows. The control group is the test substance non-addition group.
Inhibition rate (%)=100×{((uptake amount of uric acid in control group)−(uptake amount of uric acid in test substance addition group))/uptake amount of uric acid in control group}

[1] = high temperature of 100° C.; cited from earlier work
[2] = MDCK2 cells expressing human URAT1, 14C-uric acid 20 μM, 10 minutes, n=3

IC50 (human URAT1; [2]) [µM] | inhibition at 30 µM (human URAT1; MDCK2, read-out: URAT1 inhibition rate) [%] | SMILES | URAT1 inhibition rate (result in words, FIGS. 1 to 4) (human URAT1) | IC50 (test substance concentration at which URAT1 was inhibited 50%) (human URAT1; [2]) [µg/mL] | Thermal stability [1]
– | – | COc1ccc([C@@H]2CC(=O)c3c(O)cc(O[C@@H]4O[C@H](CO[C@@H]5O[C@@H](C)[C@H](O)[C@@H](O)[C@H]5O)[C@@H](O)[C@H](O)[C@H]4O)cc3O2)cc1O [Hesperidin, hesperidin] | significant increase in the inhibition rate | 16.97 (≈ 27.8 µM) | –
25.1 | – | COc1cc(O)c(CC=C(C)C)c2c1C(=O)CC(c1ccc(O)cc1)O2 (centres unmarked) [Isoxanthohumol, isoxanthohumol] | significant increase in the inhibition rate | – | stable even at a high temperature of 100 °C
41.9 | – | O=C1C[C@@H](c2ccc(O)cc2)Oc2cc(O)cc(O)c21 [Naringenin, naringenin] | significant increase in the inhibition rate | – | –
– | 99 to 100 | CCc1oc2ccccc2c1C(=O)c1cc(Br)c(O)c(Br)c1 [benzbromarone, reference compound] | – | – | –
– | – | COc1cc(O)c(CC=C(C)C)c(O)c1C(=O)/C=C/c1ccc(O)cc1 [xanthohumol, reference compound] | did not show a significant increase in the inhibition rate | – | –

SMILES | IC50 (human URAT1; [2]) [µM] | inhibition at 30 µM (human URAT1; MDCK2, read-out: URAT1 inhibition rate) [%] | URAT1 inhibition rate (result in words, FIGS. 1 to 4) (human URAT1) | IC50 (test substance concentration at which URAT1 was inhibited 50%) (human URAT1; [2]) [µg/mL] | Thermal stability [1]
O=C1C[C@@H](c2ccc(O)c(O)c2)Oc2cc(O)cc(O)c21 [Eriodictyol, eriodictyol] | 43.5 | – | significant increase in the inhibition rate | – | –

Source: US20210186924A1, “COMPOSITION FOR PROMOTING URIC ACID EXCRETION, COMPOSITION FOR INHIBITING URAT1 AND COMPOSITION FOR LOWERING BLOOD URIC ACID LEVEL” (SUNTORY HOLDINGS LIMITED, priority 2018, published 2021)
